The source of these data is US5583222A, “Azepanes and their ring homologues having protein kinase inhibiting activity” (Hoffmann-La Roche Inc., priority 1994, dated 1996).

The test system of one experiment is HaCaT-cells. In words: Inhibition of keratinocyte proliferation a) HaCaT-cells. It is filed as cell-based. The note with it: Homo sapiens, 48 hours, [3H]thymidine incorporation, read-out: Test Procedure E a: IC50, inhibition of keratinocyte proliferation. As for the experimental part: (§1) E Inhibition of keratinocyte proliferation: a) HaCaT-cells (immortalised human cells line): HaCaT-cell culture is effected in medium DMEM/F12 (mixture ratio 3/1) which contains serum (FCS, 5%), epidermal growth factor (EGF), hydrocortisone, cholera toxin, insulin, L-glutamine and penicillin/streptomycin. 5000 cells in 0.2 ml of medium are used per well in microtitre plates. The test substances are diluted in dimethyl sulphoxide/(DMSO)/medium and used in the concentration range 0.01-10 μM at the start of the culture. The cells are then incubated at 37° C. for 48 hours; radioactive [^3 H]thymidine is added during the last 6 hours. After disrupting the cells with trypsin incorporated activity is measured in a scintillation counter. The inhibitory activity of the test substance is given as the micromolar concentration which is required to reduce the thymidine incorporation by 50% (IC50 [μM]).

Experiment [1] relates to protein kinase C (PKC). The experiment in a line: Inhibition of protein kinase C (PKC) (in cells), MARCKS phosphorylation in 3T3 fibroblasts. In kind it is cell-based. The conditions noted are these: Fibroblast, TPA 100 nM, phosphorylation of 80 kD MARCKS protein, 37° C., read-out: Test Procedure C: IC50, inhibition of PKC in cells. As for the experimental part: C: Inhibition of protein kinase C (PKC) (in cells): The intracellular protein kinase C (PKC) activity is determined in 3T3 fibroblasts by measuring the phosphorylation of a PKC-specific substrate, namely 80 kD MARCKS protein (myristoylated alanine-rich C-kinase substrate). The endogenous ATP is firstly labelled by incubating the cells at 37° C. with 80-200 μCi/ml of inorganic ^32 P-labelled phosphate. Then, the activation of the PKC is effected by phorbol ester (tetradecanoyl-phorbol 13-acetate (TPA); 100 nM). The test substances are used 15 minutes prior to TPA in dimethyl sulphoxide (DMSO)/buffer in the concentration range 0.1-100 μM. After incubation at 37° C. for 15 minutes the reaction is stopped by removing the medium and the cells are lysed by the addition of 1% Triton X-100 in phosphate buffer. The cell extract is subjected to a heat treatment (20 minutes at 90° C.) and subsequently centrifuged, whereby the MARCKS protein remains dissolved in the supernatant. This is then separated by discontinuous, one-dimensional SDS gel electrophoresis and the radioactivity in the 80 kD protein band is measured by a phosphoimager.

Another experiment has as its system T-lymphocyte. The experiment in a line: Inhibition of T-lymphocyte proliferation. The conditions noted are these: human mononuclear cells, PHA 1 μg/ml, [3H]thymidine, 3rd and 4th day, read-out: Test Procedure D: IC50, inhibition of T-lymphocyte proliferation. In kind it is cell-based. Here is the method: D: Inhibition of T-lymphocyte proliferation: Human mononuclear cells are isolated from venous blood of a healthy donor and a suspension of 5×10^5 cells/ml in RPMI 1640 medium, which contains 10% FCS, is prepared. The cells are stimulated with 1 μg/ml of T-cell-specific mitogen phytohaemagglutinin (PHA). 200 μl aliquots of cell suspension are treated in microtitre plates with the test substances in serial dilutions in the concentration range 0.03-10 μM. The cell proliferation is measured on the 3rd and 4th day by incubation with 1 μCi of [^3 H]thymidine during the last 6 hours of the respective day. The radioactivity taken up is measured with a liquid scintillation counter.

The test system of a further experiment is Primary keratinocytes. The experiment in a line: Inhibition of keratinocyte proliferation b) Primary keratinocytes. It is filed as cell-based. The note with it: primary keratinocytes from human foreskin, 48 hours, [3H]thymidine incorporation, read-out: Test Procedure E b: IC50, inhibition of keratinocyte proliferation. Here is the method:
as §1, with “proliferation:” for “proliferation: a) HaCaT-cells (immortalised human cells line):”, “[μM]). b) Primary keratinocytes: Keratinocytes, isolated from human foreskin, are used in the primary culture up to passage 7. The culture and test conditions are identical with those of the HaCaT-cells with the exception of the use of 10000 cells per well.” for “[μM]).”
On the technique in general: Uptake of a labelled nucleoside into DNA is a usual measure of proliferation.

In experiment [2] the target is protein kinase C (PKC). In words: Inhibition of protein kinase C (PKC) (isolated enzyme). It is filed as biochemical. The note with it: partially purified PKC from swine brain; histone H1 substrate; 10 μM ATP; pH 7.4; 32° C., 2 minutes; read-out: Test Procedure A: IC50, inhibition of PKC (isolated enzyme). As for the experimental part: A: Inhibition of protein kinase C (PKC) (isolated enzyme): Protein kinase C (PKC) activity is determined by measuring the transfer of ^32 P-labelled phosphate from ^32 P-γ-ATP (10 μM)to histone H1 (200 μg/ml) as the substrate. Partially purified PKC from swine brain is used as the enzyme source [DEAE chromatography according to the method of U. Kikkawa et al. (Methods Enzymol. 99, 288, 1983)]. Activation of the PKC is effected by phospholipid vesicle prepared by ultrasound treatment of a mixture of 0.05 ml of phosphatidylserine (10 mg/ml) and 0.005 ml of diolein (10 mg/ml) in 5 ml of Tris-HCl buffer (20 mM, pH 7.4). The test substances are used in dimethyl sulphoxide (DMSO)/buffer in the concentration range 0.001-100 μM. The test is started by the addition of enzyme; after incubation at 32° C. for 2 minutes the reaction is stopped by the addition of 20% trichloroacetic acid (with 1% SDS and 1% sodium pyrophosphate). The precipitated radioactive histone protein is separated from excess ATP by filtration over nitrocellulose membranes and the radioactivity on the filter is measured in a scintillation counter. The inhibitory activity of the test substance is given as the micromolar concentration which is required to reduce the PKC activity by 50% (IC50 [μM]).

The target of experiment [3] is cAMP-dependent protein kinase (PKA). In words: Inhibition of cAMP-dependent protein kinase (PKA). In kind it is biochemical. The conditions noted are these: partially purified PKA from swine brain; histone H1 substrate; 10 μM ATP; 2 μM cyclic AMP; pH 7.4; 32° C., 2 minutes; read-out: Test Procedure B: IC50, inhibition of PKA. Here is the method:
B: Inhibition of CAMP-dependent protein kinase (PKA): PKA activity is determined by measuring the transfer of ^32 P-labelled phosphate from ^32 P-γ-ATP (10 μM) tO histone H1 (333 μg/ml) as the substrate. Partially purified PKA from swine brain is used as the enzyme source [DEAE chromatography according to the method of U. Kikkawa et al. (Methods Enzymol. 99, 288, 1983)]. Activation of the PKA is effected by cyclic AMP (2 μM) in Tris-HCl buffer (20 mM, pH 7.4). The test substances are used in dimethyl sulphoxide (DMSO)/buffer in the concentration range 0.001-100 μM. The test is started by the addition of enzyme; after incubation at 32° C. for 2 minutes the reaction is stopped by the addition of 20% trichloroacetic acid (with 1% SDS and 1% sodium pyrophosphate). The precipitated radioactive histone protein is separated from excess ATP by filtration over nitrocellulose membranes and the radioactivity on the filter is measured in a scintillation counter. The inhibitory activity of the test substance is given as the micromolar concentration which is required to reduce the PKA activity by 50% (IC50 [μM]).

Where a name gives a salt, the structure may show the parent alone. A value given as a limit tells only on which side of the number the result lay.

As to `COc1ccc(O)c(C(=O)c2ccc(C(=O)O[C@@H]3CCCNC[C@H]3NC(=O)c3cc(C)c(O)c(C)c3)cc2)c1F` [Example 20, 4-(2-Fluoro-6-hydroxy-3-methoxy-benzoyl)-benzoic acid (3R,4R)-3-(4-hydroxy-3,5-dimethyl-benzoylamino)-azepan-4-yl ester hydrochloride (1:1)], the IC50 in the experiment on HaCaT-cells is 3000 to 10000 nM; with protein kinase C (PKC) [1] it was 340 nM; in the experiment on T-lymphocyte it was 100 to 6000 nM.

For `O=C(N[C@@H]1CNCCC[C@H]1OC(=O)c1ccc(C(=O)c2cc3ccccc3cc2O)cc1)c1ccc(O)cc1` [Example 60, 4-(3-Hydroxy-naphthalen-2-ylcarbonyl)-benzoic acid (3R,4R)-3-(4-hydroxy-benzoylamino)-azepan-4-yl ester hydrochloride (1:1)], the IC50 in the experiment on HaCaT-cells is 300 to 500 nM; in the experiment with protein kinase C (PKC) [1], 2700 nM; in the experiment on Primary keratinocytes, 300 to 6000 nM; with T-lymphocyte, 2000 to 5000 nM; on protein kinase C (PKC) [2], 1200 nM; in experiment [3], 9 nM.

Take `Cc1cc(C(=O)N[C@@H]2CNCCC[C@H]2OC(=O)c2ccc(C(=O)c3c(O)ccc4c3OCCO4)cc2)cc(C)c1O` [Example 41]: the IC50 in the experiment on protein kinase C (PKC) [1] is more than 1000 nM; in the experiment on T-lymphocyte it was 300 nM; at protein kinase C (PKC) [2] it was 40 nM; in experiment [3] it was 13 nM.

For the compound `COc1cc(O)c(C(=O)c2ccc(C(=O)O[C@@H]3CCCNC[C@H]3NC(=O)c3ccc(O)cc3)cc2)c(F)c1` [Example 57, 4-(2-Fluoro-6-hydroxy-4-methoxy-benzoyl)-benzoic acid (3R,4R)-3-(4-hydroxy-benzoylamino)-azepan-4-yl ester hydrochloride (1:1)], the IC50 in the experiment on HaCaT-cells was 300 to 600 nM; in the experiment on protein kinase C (PKC) [1] it was 2000 nM; with Primary keratinocytes, 600 nM; at protein kinase C (PKC) [2], 867 nM; in experiment [3], 5 nM.

`Cc1cc(C(=O)N[C@@H]2CNCCC[C@H]2OC(=O)c2ccc(C(=O)c3c(O)ccc(F)c3F)cc2)cc(C)c1O` [Example 25, 4-(2,3-Difluoro-6-hydroxy-benzoyl)-benzoic acid (3R,4R)3-(4-hydroxy-3,5-dimethyl-benzoylamino)-azepan-4-yl ester hydrochloride (1:1)]: the IC50 in the experiment on protein kinase C (PKC) [1] came to 800 nM; with T-lymphocyte it was 1000 nM; at protein kinase C (PKC) [2], 40 nM; in experiment [3], 14 nM.
